# Results: patent publication US12590108B2, “Boracic acid compound” (Phaeno Therapeutics Co., Ltd, priority 2020, dated 2026)
# Legend:
# [1] = test system: Klebsiella pneumoniae ATCC BAA-1705; test: Mouse thigh muscle infection model, bacterial load; type: in vivo, CD-1 female mice; conditions: antibiotic alone 100 mg/kg i.v. q2h; endpoint 12 h
# Method: (§1) 36 CD-1 female mice were divided into 12 cages with 3 […] in each cage. The day of infection was denoted as day 0.
# (§2) Immunosuppressant cyclophosphamide at 150 mg/kg was injected intraperitoneally on day −4 and immunosuppressant cyclophosphamide at 100 mg/kg was injected intraperitoneally on day −1 to induce immunodeficient mice.
# On day −1, the strain Klebsiella pneumoniae ATCC BAA-1705 was resuscitated on an MHA plate. Resuscitated colonies were picked and dissolved in sterile physiological saline to prepare a bacterial solution with a concentration of 5.6E+07 CFU/mL for thigh muscle infection in mice. The initial time of infection was denoted as 0 h, and 100 μL of the bacterial solution was injected into each mouse at the thigh muscle at 0 h, that is, the inoculation amount was 5.6E+06 CFU/mouse. 2 h after infection, dosing was performed according to the experimental scheme. The specific experimental scheme was as follows (see Table 4): • (1) 2 h after infection: for the 1st cage of mice, at the endpoint, thigh muscle tissue was taken and placed in 10 mL of sterile physiological saline, the tissue was homogenized by a homogenizer, and the homogenate was diluted in a gradient and spotted in a plate, with two replicates for each mouse. • (2) 2 h after infection: the 2nd to 12th cages were respectively treated at 10 mL/kg by volume according to the body weight of the mice, the 2nd cage of mice were given a vehicle by intravenous injection every 2 h, and the endpoint was 12 h; the 3rd cage of mice were given 100 mg/kg of meropenem by intravenous injection every 2 h, and the endpoint was 12 h; the 4th cage of mice were given 100 mg/kg of meropenem and 20 mg/kg of QPX7728 by intravenous injection every 2 h, and the endpoint was 12 h; the 5th cage of mice were given 100 mg/kg of meropenem and 100 mg/kg of compound 15 by intravenous injection every 2 h, and the endpoint was 12 h; the 6th cage of mice were given 100 mg/kg of meropenem and 20 mg/kg of compound 15 by intravenous injection every 2 h, and the endpoint was 12 h; the 7th cage of mice were given 100 mg/kg of meropenem and 4 mg/kg of compound 15 by intravenous injection every 2 h, and the endpoint was 12 h; the 8th cage of mice were given 100 mg/kg of cefepime by intravenous injection every 2 h, and the endpoint was 12 h; the 9th cage of mice were given 100 mg/kg of cefepime and 20 mg/kg of QPX7728 by intravenous injection every 2 h, and the endpoint was 12 h; the 10th cage of mice were given 100 mg/kg of cefepime and 100 mg/kg of compound 15 by intravenous injection every 2 h, and the endpoint was 12 h; the 11th cage of mice were given 100 mg/kg of cefepime and 20 mg/kg of compound 15 by intravenous injection every 2 h, and the endpoint was 12 h; and the 12th cage of mice were given 100 mg/kg of cefepime and 4 mg/kg of compound 15 by intravenous injection every 2 h, and the endpoint was 12 h. At the endpoint of 12 h, thigh muscle tissue was taken and placed in 10 mL of sterile physiological saline, the tissue was homogenized by a homogenizer, and the homogenate was diluted in a gradient and spotted in a plate, with two replicates for each mouse. The bacterial load in the thigh muscle tissue of the mice was counted, and the experiment was summarized as follows (see Table 5): […]
# [2] = test system: Klebsiella pneumoniae ATCC BAA-1705; test: Mouse lung infection model, bacterial load; type: in vivo, CD-1 female mice; conditions: antibiotic alone 100 mg/kg i.v. q2h; endpoint 12 h
# Method: as §1, §2
# On day −1, the strain Klebsiella pneumoniae ATCC BAA-1705 was resuscitated on an MHA plate. Resuscitated colonies were picked and dissolved in sterile physiological saline to prepare a bacterial solution with a concentration of 2.75E+08 CFU/mL for lung infection by nasal drip. The initial time of infection was denoted as 0 h, and 50 μL of the bacterial solution was injected into each mouse by nasal drip at 0 h, that is, the inoculation amount was 1.38E+07 CFU/mouse. 2 h after infection, dosing was performed according to the experimental scheme. The specific experimental scheme was as follows (see Table 6): • (1) 2 h after infection: for the 1st cage of mice, at the endpoint, lung tissue was taken and placed in 10 mL of sterile physiological saline, the tissue was homogenized by a homogenizer, and the homogenate was diluted in a gradient and spotted in a plate, with two replicates for each mouse. • (2) 2 h after infection: the 2nd to 12th cages were respectively treated at 10 mL/kg by volume according to the body weight of the mice, the 2nd cage of mice were given a vehicle by intravenous injection every 2 h, and the endpoint was 12 h; the 3rd cage of mice were given 100 mg/kg of meropenem by intravenous injection every 2 h, and the endpoint was 12 h; the 4th cage of mice were given 100 mg/kg of meropenem and 20 mg/kg of QPX7728 by intravenous injection every 2 h, and the endpoint was 12 h; the 5th cage of mice were given 100 mg/kg of meropenem and 100 mg/kg of compound 15 by intravenous injection every 2 h, and the endpoint was 12 h; the 6th cage of mice were given 100 mg/kg of meropenem and 20 mg/kg of compound 15 by intravenous injection every 2 h, and the endpoint was 12 h; the 7th cage of mice were given 100 mg/kg of meropenem and 4 mg/kg of compound 15 by intravenous injection every 2 h, and the endpoint was 12 h; the 8th cage of mice were given 100 mg/kg of cefepime by intravenous injection every 2 h, and the endpoint was 12 h; the 9th cage of mice were given 100 mg/kg of cefepime and 20 mg/kg of QPX7728 by intravenous injection every 2 h, and the endpoint was 12 h; the 10th cage of mice were given 100 mg/kg of cefepime and 100 mg/kg of compound 15 by intravenous injection every 2 h, and the endpoint was 12 h: the 11th cage of mice were given 100 mg/kg of cefepime and 20 mg/kg of compound 15 by intravenous injection every 2 h, and the endpoint was 12 h; and the 12th cage of mice were given 100 mg/kg of cefepime and 4 mg/kg of compound 15 by intravenous injection every 2 h, and the endpoint was 12 h. At the endpoint, lung tissue was taken and placed in 10 mL of sterile physiological saline, the tissue was homogenized by a homogenizer, and the homogenate was diluted in a gradient and spotted in a plate, with two replicates for each mouse. The bacterial load in the lung tissue of the mice was counted, and the experiment was summarized as follows (see Table 7): […]
# [3] = test system: Klebsiella pneumoniae ATCC BAA-1705 (KPC-2); test: MIC shift, liquid microdilution, meropenem fixed at 4 μg/mL; type: cell-based; conditions: compound + meropenem fixed at 4 μg/mL; K. pneumoniae ATCC BAA-1705, KPC-2
# Method: (§3) The test compound was tested for minimum inhibitory concentration against three strains of Klebsiella pneumoniae ATCC BAA-1705 (KPC-2), ATCC BAA-2470 (NDM-1), and ARLG-1196 (CTM-1 group, SHV, NDM, TEM), and one strain of Escherichia coli ARLG-2829 (NDM-5, OXA-1). According to the requirements of the Institute of Clinical And Laboratory Standard (CLSI), the minimum inhibitory concentration (MIC) of each drug combination was determined by liquid microdilution method under the premise of fixing the concentration of meropenem at 4 μg/mL.
# (§4) Preparation of compound mother plate: On the day of the experiment, the compound to be tested (the final concentration was 0.3125 to 20 μg/mL) and meropenem (the final concentration ranged from 1 to 64 μg/mL) were dissolved in a corresponding solvent (sterile ddH2O or DMSO) to form 100× mother liquors with the highest test concentration, and the compound to be tested and meropenem were then subjected to 2-fold series gradient dilution in a V-bottom 96-well plate to obtain 100× working solutions with the final concentration.
# (§5) Preparation of inoculation solution: Fresh bacterial clones were picked from an overnight Mueller Hinton II Agar medium (MHA, Cat. No. 211438, BD BBLTM) plate, suspended in sterilized physiological saline, and adjusted to a concentration of 1×10^8 CFU/mL, and the suspension was further diluted to 5-10^5 CFU/mL with Cation-Adjusted Mueller Hinton II Broth (MHB, Catalog #212332, BD BBLTM).
# (§6) Detection of minimum inhibitory concentration (MIC): 1 μL of the compound to be tested and the meropenem working solution were transferred to the corresponding wells to be tested in a round-bottomed 96-well plate (Catalog #3788, Corning), and 98 μL of the inoculation solution was added to the round-bottomed 96-well plate containing drugs, which was an MIC test plate; and after the plate was inverted and cultured at 37° C. for 20-24 h, the MIC value was read, and the minimum inhibitory concentration for inhibiting bacterial growth was defined as MIC.
# [4] = test system: Klebsiella pneumoniae ATCC BAA-2470 (NDM-1); test: as above; type: cell-based; conditions: compound + meropenem fixed at 4 μg/mL; K. pneumoniae ATCC BAA-2470, NDM-1
# Method: as §3, §4, §5, §6
# [5] = test system: Klebsiella pneumoniae ARLG-1196 (CTM-1 group, SHV, NDM, TEM); test: as above; type: cell-based; conditions: compound + meropenem fixed at 4 μg/mL; K. pneumoniae ARLG-1196, CTM-1 and isoforms thereof, SHV, NDM, TEM
# Method: as §3, §4, §5, §6
# [6] = test system: Escherichia coli ARLG-2829 (NDM-5, OXA-1); test: as above; type: cell-based; conditions: compound + meropenem fixed at 4 μg/mL; E. coli ARLG-2829 (urine clinical isolate), NDM-5, OXA-1
# Method: as §3, §4, §5, §6
SMILES,Average CFU in mice (thigh muscle tissue) [1] [CFU/mouse],Average CFU in mice (lung tissue) [2] [CFU/mouse],MIC [3] [µg/mL],MIC [4] [µg/mL],MIC [5] [µg/mL],MIC [6] [µg/mL]
"CO/N=C(\C(=O)N[C@@H]1C(=O)N2C(C(=O)[O-])=C(C[N+]3(C)CCCC3)CS[C@H]12)c1csc(N)n1 [Cefepime, cefepime, reference compound]",4.25E+07,1.90E+08,,,,
CC1(C)Oc2ccc(F)c(C(=O)O)c2OB1O [Compound 1],,,0.0625,>20,>20,>20
COB1Oc2c(ccc(F)c2C(=O)O)OC1(C)C [Compound 2],,,20,>20,>20,>20
COc1ccc2c(c1C(=O)O)OB(O)CO2 [Compound 3],,,≤0.3125,5,2.5,5
O=C(O)c1c(F)cc(Cl)c2c1OB(O)CO2 [Compound 4],,,≤0.03,2.5,2.5,10
O=C(O)c1c(Cl)ccc2c1OB(O)CO2 [Compound 5],,,≤0.3125,20,10,>20
O=C(O)c1c(F)c(F)cc2c1OB(O)CO2 [Compound 6],,,≤0.03,10,10,20
O=C(O)c1ccc(Cl)c2c1OB(O)CO2 [Compound 7],,,≤0.03,20,20,>20
O=C(O)c1c(F)ccc2c1OB(O)CO2 [Compound 8],,,≤0.3125,20,10,20
COB1COc2ccc(F)c(C(=O)O)c2O1 [Compound 9],,,≤0.3125,>20,>20,>20
O=C(O)c1cc(F)cc2c1OB(O)CO2 [Compound 10],,,≤0.03,5,2.5,10
COc1cc(Cl)c2c(c1C(=O)O)OB(O)CO2 [Compound 11],,,≤0.03,2.5,2.5,10
COc1c(Cl)c(Cl)c2c(c1C(=O)O)OB(O)CO2 [Compound 12],,,0.06,5,2.5,10
O=C(O)c1c2c(cc3c1O[B-](O)(O)CO3)CCCO2 [Compound 14],,,≤0.3125,5,2.5,10
COc1cc2c(c(C(=O)O)c1F)O[B-](O)(O)CO2 [Compound 16],,,0.625,5,5,10
Cc1ccc2c(c1C(=O)O)O[B-](O)(O)CO2 [Compound 17],,,≤0.3125,10,10,20
O=C(O)c1c(OCC2CC2)ccc2c1O[B-](O)(O)CO2 [Compound 20],,,1.25,2.5,2.5,2.5
O=C(O)c1c(OC2COC2)ccc2c1O[B-](O)(O)CO2 [Compound 23],,,0.625,1.25,1.25,5
CCCOc1ccc2c(c1C(=O)O)O[B-](O)(O)CO2 [Compound 29],,,0.625,2.5,1.25,5
